In BindingDB's records for doi:10.1016/j.bmcl.2011.03.071 (University of Canterbury, 2011):

Target: Phospho-2-dehydro-3-deoxyheptonate aldolase (Escherichia coli, UniProt C3TIE2)
Experiment: Competitive inhibition of recombinant Escherichia coli DAH7P synthase using PEP as substrate by Michaelis-Menten equation analysis using UV-visible spectrophotometry

Sequence of Phospho-2-dehydro-3-deoxyheptonate aldolase (C3TIE2 1-350): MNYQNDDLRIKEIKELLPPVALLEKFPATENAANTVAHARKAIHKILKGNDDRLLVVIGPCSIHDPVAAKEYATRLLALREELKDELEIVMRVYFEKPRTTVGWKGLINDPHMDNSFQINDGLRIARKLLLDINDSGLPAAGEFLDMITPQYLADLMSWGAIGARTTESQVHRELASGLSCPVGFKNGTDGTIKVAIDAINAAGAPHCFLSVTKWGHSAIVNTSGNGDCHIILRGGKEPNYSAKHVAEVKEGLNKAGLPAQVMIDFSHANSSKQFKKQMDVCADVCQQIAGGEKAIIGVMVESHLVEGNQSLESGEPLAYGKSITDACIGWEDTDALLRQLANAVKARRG

Question: How did the Ki turn out when `O=C(O)C(=CCCCCOP(=O)(O)O)CP(=O)(O)O` was run?
Answer: 154 µM
